“Also recorded” adds a separate entry of the source. One block for each molecule: values may come before it.
Key:
DA and DA.E3chr12 rats = conditions: PIA
Experimental: Arthritic development was monitored in all limbs using a macroscopic scoring system. Briefly, 1 point was given for each swollen or red toe, 1 point for each swollen midfoot, digit, or knuckle, and 5 points for a swollen ankle. The maximum score for a limb was 15 points, and the maximum score for a rat was 60 points.
For administration, 50 mg of DPI was dissolved in 250 mL DMSO/PBS. About 0.5 mL was injected intraperitoneally into rats on day 0, 2, 3, 4, 5, 6, 7, 8, 10, 12, 14, 17, 19, and 21.
Arthritis development was monitored in all limbs.

mice = conditions: daily intraperitoneal 2.8 μmol/kg (880 μg/kg); cited from earlier work
DA rats [1] = experiment: Arthritis-inducing effect of oils injected intradermally at the base of the tail; format: in vivo, Rat (Rattus norvegicus); conditions: oil injected intradermally at base of tail, scored days 12-31, FIG. 10
Source text: The arthritis-inducing effects of the oils was examined by injecting the oils intradermally into DA rats. […] Note that p<0.05 for alkanes shorter than C15 compared to C19. All statistics evaluated with student's t-test. N=4 for all groups.

NADPH complex [2] = experiment: Oxygen burst studies, activation of NADPH complex (cell type not stated); format: cell-based; conditions: oxygen burst studies / WST-1 assay
Experimental: (§1) The unsaturated fatty acids C14:1-C24:1 (myristoleic acid, palmitoleic acid, oleic acid, linoleic acid, linolenic acid, 11c-eicosenoic acid, arachidonic acid, erucic acid, and neuronic acid) and squalenee (Sigma) were also tested.
(§2) 10 μL of each of the oils to be tested was added with 9 μL of WST1 to the wells of a 96 well microtitre plate. 10^6 cells/mL (100 μL of 10^7 cells/mL) were added to each well and the color change measured in a spectrophotometer at 450 nm at 37° for 60 minutes (one measurement/min).
10 μL each of the oils to be tested were added to the wells of a 96 well microtitre plate. 50 μL of cytochrome C (4 mg/mL) and […] (50 μL of 10^7 cells/mL) were added to each well and the absorbance measured in a spectrophotometer at 550 nm at 37° C. for 60 minutes (one measurement/minute).

[3] = in vivo; cited from earlier work
[4] = In vivo distribution of 14C-labeled oils; set-up: species or system Rat (Rattus norvegicus); conditions: for arthritis in rats treated with radioactively-labeled oils: 200 μL i.d. at base of tail, DA rats, FIG. 13; for extent of distribution to the lymph nodes: hexadecane compared with oleic acid
Experimental: [1-14C]-Hexadecane and [1-14C]-Oleic acid were purchased from Amersham. The oils were injected intradermally at the base of the tail in 18 DA rats (200 μL). At day 10, the organs (lymph nodes, spleen, liver and kidney) of three rats from each group were collected. The organs were weighed and homogenized in a total volume of 2 mL PBS and frozen. The same procedure was followed at day 20 and at day 30. 1 mL of the homogenised samples was then added to 10 mL Ready Safe (Beckman) and counted in a beta counter. The distribution of radioactive labelled hexadecane to the lymph nodes was also inspected at earlier time points (day 3, day 6, day 10, and day 13).

[5] = in vivo; cited from earlier work; remark: listed apart in the source
DA rats [6] = experiment: Treatment of hexadecane-induced arthritis with hexadecene; format: in vivo, Rat (Rattus norvegicus); conditions: rat, in vivo
Experimental: Groups of DA rats were injected i.d. at the base of the tail as follows: • Hexadecane 200 μL day 0; • Hexadecene 200 μL day 0; • Hexadecene 200 μL day −5, Hexadecane 200 μL day 0; • Olive oil 200 μL day −5, Hexadecane 200 μL day 0; • Hexadecene 200 μL day +5, Hexadecane 200 μL day 0; and • Olive oil day 200 μL +5, Hexadecane 200 μL day 0.
The rats were scored as indicated above. Olive oil was used as a control.

DA rats [7] = experiment: Treatment of active PIA with phytol or undecane; format: in vivo, Rat (Rattus norvegicus); conditions: 200 μL i.p. or i.d. at day 21 and day 26; FIG. 23
Experimental: Groups of DA rats were injected with […] at day 0. The […] (150 μL) was injected intra-dermal at the base of the tail. The rats were scored from day 9 using the extended scoring system (see above). Then, the rats were treated at day 21 and at day 26 with one of the following alternatives: (1) 200 μL phytol intra-peritoneal; (2) 200 μL phytol intra-dermal at the base of the tail; (3) 200 μL undecane intra-peritoneal; (4) 200 μL undecane intra-dermal at the base of the tail; or (5) control untreated.

DA rats [8] = experiment: Treatment of experimental allergic encephalomyelitis (EAE) with phytol; format: in vivo, Rat (Rattus norvegicus); conditions: 200 μL phytol at day -10 and day +5; olive oil control; p<0.05; FIG. 16
Experimental: Groups of DA rats were injected at the base of the tail with 200 μL phytol at day -10, day -5, and day +5. Olive oil was used as a control. At day 0, all rats were treated (immunized) with 200 μL SCH (DA spinal cord homogenate, to induce EAE) i.d. at the base of the tail. The rats were then scored according to the following scale for 40 days: • 0=Normal • 1=Tail weakness • 2=Tail paralysis • 3=Tail paralysis and mild […] • 4=Tail paralysis and severe […] • 5=Tail paralysis and paralysis of one limb • 6=Tail paralysis and paralysis of a pair of limbs • 7=Tetra-paresis • 8=Pre-morbid or dead.

DA rats [9] = experiment: Route of administration of phytol in treatment of PIA; format: in vivo, Rat (Rattus norvegicus); conditions: FIG. 17
Experimental: Groups of DA rats were treated with phytol according to one of the following treatment regimens at day −5 and at day +5. All rats were injected with […] (200 μL) at day 0 intradermally at the base of the tail. Phytol was administered to groups of rats as follows: • 25 μL phytol intranasally (i.n.); • 200 μL phytol intraperitoneally (i.p.); • 200 μL phytol intradermally at the base of the tail (i.d.); and • 1 mL phytol per os (p.o.).
The rats were scored from day 9 using the extended scoring system (as discussed previously).

DA rats [10] = experiment: Collagen induced arthritis (CIA) in rats treated with phytol; format: in vivo, Rat (Rattus norvegicus); conditions: FIG. 22
Experimental: DA rats were treated according to one of the following alternatives: (1) 200 μL phytol intra-dermal at the base of the tail at day −10; (2) 200 μL phytol intra-dermal at the base of the tail at day −5; (3) 200 μL phytol intra-peritoneal at day −5 and day +5; or (4) control untreated. CIA was induced in all animals at day 0 by injecting […] of collagen II dissolved in 75 μL 0.1 M Acetic acid and emulsified in 75 μL IFA. The rats were scored from day 10 using the extended scoring system (see above).

NADPH complex [11] = experiment: Oxidative burst WST-1 assay, E3 rat peritoneal cells; format: cell-based; conditions: peritoneal cells from E3 rat after thioglycolate; FIG. 9A
Experimental: as §1, with “tested. The oils were solubilized by dilution in cyclodextrin (100 mM in PBS).” for “tested.”
5 mL thioglycolate (2.4%) was injected intraperitoneally in E3 rats to elicit recruitment of neutrophils 16 hours before sacrifice. 40 mL PBS+hepes (1%) was injected into the peritoneum and the cell suspension extracted. Red blood cells were lysed with 0.84% NH4Cl, and WBC were washed in PBS and resuspended in PBS at a concentration of about 10^7 cells/mL.
as §2

NADPH complex [12] = biological target: T1, NADPH complex (Homo sapiens, UniProt P14598); experiment: Oxidative burst WST-1 assay, HL60 cells; format: cell-based; conditions: FIG. 9B
T1 construct: endogenous in cells; host or cells: HL60 cells differentiated with 1.25% DMSO
T1 sequence (P14598 1-390): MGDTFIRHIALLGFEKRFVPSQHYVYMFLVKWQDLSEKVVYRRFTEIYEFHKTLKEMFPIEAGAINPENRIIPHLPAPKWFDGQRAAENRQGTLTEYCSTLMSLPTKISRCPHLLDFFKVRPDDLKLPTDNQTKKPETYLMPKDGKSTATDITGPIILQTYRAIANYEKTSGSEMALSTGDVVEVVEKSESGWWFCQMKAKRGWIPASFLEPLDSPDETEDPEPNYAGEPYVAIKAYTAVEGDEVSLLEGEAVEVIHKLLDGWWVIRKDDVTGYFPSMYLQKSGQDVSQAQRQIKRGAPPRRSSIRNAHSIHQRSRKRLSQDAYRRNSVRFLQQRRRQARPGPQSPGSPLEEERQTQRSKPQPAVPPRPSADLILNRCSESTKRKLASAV
Experimental: The unsaturated fatty acids C14:1-C24:1 (myristoleic acid, palmitoleic acid, oleic acid, linoleic acid, linolenic acid, 11c-eicosenoic acid, arachidonic acid, erucic acid, and neuronic acid) and squalenee (Sigma) were also tested. The oils were solubilized by dilution in cyclodextrin (100 mM in PBS). Human […] cell line HL60 was cultured in Dulbeccos complete medium with Hepes, 10% Fetal calf serum, and Penicillin-Streptomycin. HL60 cells differentiated to neutrophil-macrophages six days after addition of 1.25% DMSO. The cells were spun down at 1200 rpm for 5 minutes and then washed with PBS twice. The cells were then resuspended in PBS to a concentration of about 10^7 cells/mL. 10 μL of each of the oils to be tested was added with 9 μL of WST1 to the wells of a 96 well microtitre plate. 10^6 cells/mL (100 μL of 10^7 cells/mL) were added to each well and the color change measured in a spectrophotometer at 450 nm at 37° for 60 minutes (one measurement/min).

DA rats [13] = experiment: Treatment/prevention of pristane-induced arthritis with undecane; format: in vivo, Rat (Rattus norvegicus)
Experimental: Groups of DA rats were injected intradermally at the base of the tail with 200 μL of the oils as indicated below: • Undecane day −10, […] day 0; • Olive oil day −10, […] day 0; • Undecane day −5, […] day 0; • Undecanol day −5, […] day 0; Olive oil day −5, […] day 0; • Undecane day 5, […] day 0; and • Olive oil day 5, […] day 0.
The rats were scored every other day starting at day 11 according to the extended scoring system where every red or swollen toe or mid foot scored one point, and a red and swollen ankle scored five points, yielding a total of 15 points/limb and 60 points/rat. Olive oil and undecanol were used as controls.

Compound: c1ccc2c(c1)[I+]c1ccccc1-2 [DPI, diphenyleneiodonium chloride]
severity of arthritis (DA and DA.E3chr12 rats; DPI 1.25 μmol/kg i.p. on days 0-21, FIG. 6): increased severity of arthritis | accumulated arthritis scores (DA and DA.E3chr12 rats; DPI-treated vs control rats, FIG. 7): greater accumulated arthritis scores than control rats | reduction of arthritis (mice): 50%

Compound: CCCCCCCCCCCCCCC [Pentadecane, pentadecane]
arthritis induction (DA rats [1]): did induce arthritis | activation of the NADPH complex (NADPH complex [2]): did not activate the NADPH complex

Compound: CCCCCCCC/C=C\CCCCCCCC(=O)O [oleic acid]
arthritis in rats treated with radioactively-labeled oils [4]: does not induce arthritis | extent of distribution to the lymph nodes [4]: not distributed to the lymph nodes to as high an extent as the hexadecane

Compound: C/C(=C\CO)CCC[C@H](C)CCC[C@H](C)CCCC(C)C [phytol]
effect on active arthritis in PIA rat model (DA rats [7]): effective against active arthritis | arthritis induction [5]: do not | additive score and maximum score of EAE, phytol vs control rats (DA rats [8]): significant difference | effect on PIA (DA rats [9]; 25 μL phytol i.n. day -5 and day +5): ameliorative and preventive effects | effect on PIA (DA rats [9]; 200 μL phytol i.d. day -5 and day +5): ameliorating and preventive effect | effect on PIA (DA rats [9]; 200 μL phytol i.p. day -5 and day +5): ameliorative and preventive effects | development of arthritis in CIA rat model (DA rats [10]; 200 μL phytol intra-dermal day -10 or day -5): prevented development of arthritis | development of arthritis in CIA rat model (DA rats [10]; 200 μL phytol intra-peritoneal day -5 and day +5): prevented development of arthritis

Compound: CCCCCCCCCCC [undecane]
effect on active arthritis in PIA rat model (DA rats [7]): effective against active arthritis | arthritis induction (DA rats [1]): did not induce arthritis | activation of the oxidative burst (WST-1 assay) (NADPH complex [11]): potent activator | activation of the oxidative burst (WST-1 assay) (NADPH complex [12]): potent activator | additive score and maximum score of PIA, undecane vs olive oil (DA rats [13]; 200 μL i.d. day -5, pristane day 0, p<0.05, FIG. 11B, 11C): significant difference | additive score and maximum score of PIA, undecane vs undecanol (DA rats [13]; 200 μL i.d. day -5, pristane day 0, p=0.05 additive, p<0.05 maximum): significant difference | arthritis score / preventive effect, undecane day +5 compared with day -10 or day -5 (DA rats [13]; 200 μL i.d., pristane day 0): slightly higher score; also recorded: did not show as significant a preventive effect as at day −10 or at day −5 | activation of the NADPH complex (NADPH complex [2]): activated the NADPH complex

Continued, in another order:

arthritis induction (DA rats [1]): induce arthritis
Compound: CCCCCCCCCCCCCCCCC [heptadecane]
activation of the NADPH complex (NADPH complex [2]): activate the NADPH complex

time of maximum accumulation in the lymph nodes ([4]; FIG. 15): 10 days | extent of distribution to the lymph nodes [4]: higher extent than oleic acid | arthritis-inducing capacity (DA rats [6]): induces arthritis | arthritis induction (DA rats [1]): induced arthritis
Compound: CCCCCCCCCCCCCCCC [hexadecane]
distribution of 14C-labeled hexadecane [3]: disseminated predominantly to the lymph nodes | arthritis in rats treated with radioactively-labeled oils [4]: only the rats injected with hexadecane had arthritis | time course of accumulation in the lymph nodes ([4]; days 3, 6, 10, 13 and later, FIG. 15): increase in the accumulation of hexadecane in the lymph nodes until day 10; also recorded: slowly decreased | arthritis induction [5]: induce arthritis | activation of the NADPH complex (NADPH complex [2]): activated the complex

arthritis induction (DA rats [1]): induce arthritis
Compound: CCCCCCCCCCCCCCCCCC [octadecane]
activation of the NADPH complex (NADPH complex [2]): activate the NADPH complex

Reference: patent US7943338B2, “Autoimmune conditions and NADPH oxidase defects” (Arexis AB, priority 2002, dated 2011)
